The target of series [1] is T1, Human recombinant cyclophilin A (CypA) (Homo sapiens, UniProt P62937).
T1 construct: purchased Sigma C3805
In words: Protease-free PPIase assay, cyclophilin A. The series is classed as biochemical. The settings on record: human recombinant CypA, 10 °C, SUC-AAPF-pNA substrate; read-out: CypA Protease-free PPIase Assay Ki. How it is done:
(§1) Protease-Free PPIase Assay The protease-free PPIase assay measures the rate of cis to trans conversion of a peptide substrate catalyzed by the enzyme cyclophilin A or D. Addition of a cyclophilin inhibitor (e.g., a test compound) slows the catalyzed rate and a Ki value is obtained. 35 mM HEPES pH 7.8, filtered through a 0.2 μm filter. 50 μM DTT was added prior to use each day and then the buffer was stored on ice. […] Human recombinant 6-His tagged cyclophilin D (CypD), prepared by the University of Edinburgh, was used to generate CypD inhibition data. Succinimide-[…]-nitroanilide (SUC-AAPF-pNA) (from Bachem AG, L-1400), 20 mg/ml prepared in 0.5 M LiCl in trifluoroethanol. All readings were taken with an Agilent 8453 Spectrophotometer which consisted of a cuvette holder, stirrer and chiller to maintain a stirred cuvette temperature of 10.0±0.1° C. The temperature was monitored by the use of temperature probe. […] The inhibitor was diluted in 100% DMSO, and then added to the assay to a maximum final concentration of 0.5% DMSO in the assay. […] The absorbance was measured at 330 nm for 300 s or 500 s for blank runs (NOTE: the substrate was added in one quick injection and the measurements started immediately to minimize mixing errors). A first order rate equation was fitted to the absorbance data, for each concentration of inhibitor, to obtain the rate constant (the first 10 to 15 seconds were excluded, as mixing causes errors in this portion of the curve). The catalytic rate was calculated from the enzymatic rate constant minus the background rate constant. An exponential curve was generated using the catalytic rate constants versus the inhibitor concentration to obtain the Ki value for the inhibitor. The Ki value is indicative of the binding affinity between the test compound and cyclophilin A.

A further series concerns the target T2, calcineurin (Homo sapiens, UniProt P62937+P63098+Q08209).
T2 construct: purchased Enzo Life Sciences BML-AK804
In words: Calcineurin Phosphatase (CaN) Assay. Type of series: biochemical. The conditions noted are these: in the presence of CypA, 1:1 complex of inhibitor with CypA. From the text: Calcineurin Phosphatase (CaN) Assay
The calcineurin phosphatase assay is a means for estimating the immunosuppressive potential of a test compound. Calcineurin is a serine-threonine protein phosphatase that on activation dephosphorylates members of the nuclear factor of activated T cells (NFAT), which are important in T lymphocyte activation.
To investigate the immunosuppressive potential of exemplary compounds of Formula I, which are cyclosporin analogs, their ability to inhibit calcineurin activity was measured in the presence and absence of CypA.
The CaN assay kit used is based on a colorimetric assay for measuring calcineurin phosphatase activity, and it is commercially available (Enzo Life Sciences and Calbiochem). Calmodulin is also required for calcineurin activity, and RII phosphopeptide is used as an efficient peptide substrate for calcineurin. […] The detection of free phosphate released is based on the classic Malachite green assay.
Enzo Life Sciences CaN Assay Kit: BML-AK804
For samples ‘without CypA’, a 4-point dilution series of the inhibitor was prepared in duplicate to obtain a final assay concentration of 10, 1, 0.1 and 0.01 μM. For samples ‘with CypA’, a 7-point dilution series was prepared to obtain a 1:1 complex of the inhibitor with CypA; the inhibitor and CypA final assay concentrations of 10, 3.33, 1.11, 0.37, 0.12, 0.04, 0.014 μM were prepared.
using the half area 96 well plates supplied with the kit, 10 μl UPW was added to duplicate wells to provide the non-inhibited control. 10 μl of the inhibitor or the inhibitor/CypA complex was added to the appropriate sample wells. 25 μl of the 2× assay buffer with calmodulin (CaM) was added to all wells, then 5 μl of calcineurin phosphatase (CaN) was added to all wells (40 U per well final concentration) except duplicate ‘no calcineurin blank’ wells to which 5 μL 1× assay buffer was added. The assay plate was placed in an oven at 30° C. for 15 minutes to equilibrate to the reaction temperature. The reaction was started by the addition of 10 μl RII-peptide (0.15 mM final concentration). The reaction was allowed to proceed at 30° C. for a time period in which the reaction is linear for about 60 minutes. The reaction was then terminated by adding 100 μl of the Malachite Green reagent. The color was allowed to develop for 15-30 minutes at room temperature before the absorbance at 620 nm was measured using a plate reader (Molecular Devices—SpectraMax M5). The data were analyzed by subtracting ‘no calcineurin blank’ from all the absorbance readings and plotting the background corrected absorbances against Log10 inhibitor concentration. A sigmoidal-dose response curve was fitted to the data using GraphPad Prism Software.
It exerts its immunosuppressive activity by binding to CypA to form a complex, which then binds to calcineurin and thereby inhibits calcineurin activity.

The target of series [2] is T3, Human recombinant 6-His tagged cyclophilin D (CypD) (Homo sapiens, UniProt P30405).
T3 construct: 6-His
T3 sequence (P30405 30-207): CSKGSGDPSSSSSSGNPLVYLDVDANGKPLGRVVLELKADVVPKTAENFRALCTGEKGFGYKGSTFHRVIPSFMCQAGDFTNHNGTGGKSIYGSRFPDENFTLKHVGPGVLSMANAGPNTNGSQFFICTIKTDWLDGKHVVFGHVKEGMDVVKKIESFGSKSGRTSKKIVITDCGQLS
In words: Protease-free PPIase assay, cyclophilin D. The series is classed as biochemical. The settings on record: human recombinant 6-His CypD, 10 °C, SUC-AAPF-pNA substrate; read-out: CypD Protease-free PPIase Assay Ki. The procedure: as §1

Another series in a line: physchem. The settings on record: 25 °C, pH 7.4, aqueous buffer, kinetic from dmso stock.

Values after ≈ are worked out from the molar mass of the structure shown. Starred links: 1 amine or outer side, 2 acyl side, 3 side chain; linkers in the order of their positions; H or OH if unused. Non-standard residues stand in square brackets, D forms with d. Residues, ends and D or L forms follow the SMILES beside them. X1 = C[C@@H]1CCO[C@H]1[C@H](C(=O)[*:2])N(C)[*:1]; d(aThr) = C[C@@H](O)[C@@H](N)C(=O)O; NMeL = CN[C@@H](CC(C)C)C(=O)O; dNMeL = CN[C@H](CC(C)C)C(=O)O; dNMeV = CN[C@@H](C(=O)O)C(C)C; dNMeA = CN[C@H](C)C(=O)O

T1 sequence (P62937 whole entry): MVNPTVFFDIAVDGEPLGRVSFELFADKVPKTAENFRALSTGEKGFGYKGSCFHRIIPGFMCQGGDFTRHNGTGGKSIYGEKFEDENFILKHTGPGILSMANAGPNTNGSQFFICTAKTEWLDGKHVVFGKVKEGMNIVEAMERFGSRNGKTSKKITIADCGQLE
Procedure for physchem: The aqueous solubility of a compound of Formula I in buffer (pH 7.8) was measured by recording the onset of precipitation of the compound as a function of increasing concentration. The onset of precipitation, if it occurred, was detected by an increase in absorbance at 650 nm.
Stock solutions of Control and Test Compounds: 10 mM in 100% DMSO.
10 mM stock solutions of control and test compounds were prepared in 100% DMSO.
Assay buffer (247.5 μl) was placed into a flat bottomed transparent 96-well plate. For blank samples, DMSO (2.5 μl) was added. For test and control samples, 2.5 μl of the appropriate DMSO dilution stocks were added to the appropriate well. All test and control compounds were performed in triplicate.
The plates were sealed with adhesive plate seal and shaken at 250 rpm at 25° C. for 18 h on a plate shaker. After incubation, the plate seals were taken off and any bubbles observed in wells removed. The plates were read on a SpectraMaxM5 with a 5 s pre-shake at 650 nm.
Data files were transferred to the appropriate worksheet and the solubility range of the compounds was calculated from the data.

Turning to `CC[C@H]1NC(=O)[C@@H]([C@@H]2OCC[C@H]2C)N(C)C(=O)[C@@H](C(C)C)N(C)C(=O)[C@@H](CC(C)C)N(C)C(=O)[C@@H](CC(C)C)N(C)C(=O)[C@H](C)NC(=O)[C@@H](C)NC(=O)[C@@H](CC(C)C)N(C)C(=O)[C@@H](C(C)C)NC(=O)[C@H](CC(C)C)N(C)C(=O)CN(C)C1=O` [Compound 4, [(2S)-2-(methylamino)-2-[(2R,3R)-3-methyltetrahydrofuran-2-yl]acetic acid]^1 cyclosporin A], the Ki in series [1] was 509 nM; in series [2], 920 nM. Moreover, on calcineurin, the IC50 was over 10000 nM.
As for `CC[C@H]1NC(=O)[C@@H]([C@@H]2OCC[C@H]2C)N(C)C(=O)[C@@H](C(C)C)N(C)C(=O)[C@@H](CC(C)C)N(C)C(=O)[C@@H](CC(C)C)N(C)C(=O)[C@H](C)NC(=O)[C@@H](C)NC(=O)[C@@H](CC(C)C)N(C)C(=O)[C@@H](C(C)C)NC(=O)[C@H](CC(C)C)N(C)C(=O)[C@@H](C(F)F)N(C)C1=O` [Compound 5, [(2S)-2-(methylamino)-2-[(2R,3R)-3-methyltetrahydrofuran-2-yl]acetic acid]^1 [(S)-difluoromethyl-Sar]^3 cyclosporin A], the Ki was determined as 198 nM in series [1] and 14.5 nM in series [2]. For the same compound, the IC50 on calcineurin was over 10000 nM. Moreover, the concentration in solution in the series “physchem” (solubility at 18 h) was 50 µM (≈ 61.2 µg/mL).
Regarding `CC[C@H]1NC(=O)[C@@H]([C@@H]2OCN(C)C[C@H]2C)N(C)C(=O)[C@@H](C(C)C)N(C)C(=O)[C@@H](CC(C)C)N(C)C(=O)[C@@H](CC(C)C)N(C)C(=O)[C@H](C)NC(=O)[C@@H](C)NC(=O)[C@@H](CC(C)C)N(C)C(=O)[C@@H](C(C)C)NC(=O)[C@H](CC(C)C)N(C)C(=O)[C@@H](C)N(C)C1=O` [Compound 24], the Ki in series [1] is 550 nM; in series [2], 79 nM. Moreover, the IC50 on calcineurin was over 10000 nM. This compound also registered a solubility at 18 h in the series “physchem” of over 100 µM.
For `CC[C@H]1NC(=O)[C@@H]([C@@H]2OCCC[C@H]2C)N(C)C(=O)[C@@H](C(C)C)N(C)C(=O)[C@@H](CC(C)C)N(C)C(=O)[C@@H](CC(C)C)N(C)C(=O)[C@H](C)NC(=O)[C@@H](C)NC(=O)[C@@H](CC(C)C)N(C)C(=O)[C@@H](C(C)C)NC(=O)[C@H](CC(C)C)N(C)C(=O)[C@@H](C)N(C)C1=O` [Compound 15, [(2S)-2-(methylamino)-2-[(2R,3R)-3-methyltetrahydropyran-2-yl]acetic acid]^1 [(R)-methyl-Sar]^3 cyclosporin A], the figures for the Ki in series [1] and in series [2] were 38 nM and 46 nM, respectively. The IC50 at calcineurin is 5290 nM.
Regarding `CC[C@H]1NC(=O)[C@@H]([C@@H]2OC(O)C[C@H]2C)N(C)C(=O)[C@@H](C(C)C)N(C)C(=O)[C@@H](CC(C)C)N(C)C(=O)[C@@H](CC(C)C)N(C)C(=O)[C@H](C)NC(=O)[C@@H](C)NC(=O)[C@@H](CC(C)C)N(C)C(=O)[C@@H](C(C)C)NC(=O)[C@H](CC(C)C)N(C)C(=O)[C@@H](C)N(C)C1=O` (stereo partly drawn) [Compound 12, [(2R)-2-[(2R,3R)-5-hydroxy-3-methyl-tetrahydrofuran-2-yl]-2-(methylamino)acetic acid]^1[(R)-methyl-Sar]^3 cyclosporin A], the Ki in series [1] was determined as 49 nM; in series [2], 12 nM. Besides, the IC50 on calcineurin was over 10000 nM.
Take `CC(C)C[C@@H]1C(=O)N(C)[C@H](CC(C)C)C(=O)N(C)[C@H](C(C)C)C(=O)N(C)[C@H]([C@@H]2OCC[C@H]2C)C(=O)N[C@H]([C@@H](C)O)C(=O)N(C)[C@H](C)C(=O)N(C)[C@@H](CC(C)C)C(=O)N[C@H](C(C)C)C(=O)N(C)[C@H](CC(C)C)C(=O)N[C@H](C)C(=O)N[C@@H](C)C(=O)N1C` [Compound 11, [(2S)-2-(methylamino)-2-[(2R,3R)-3-methyltetrahydrofuran-2-yl]acetic acid]^1 [(R)-methyl-Sar]^3 cyclosporin C] (cyclo(A[dNMeL][dNMeL][dNMeV][X1][d(aThr)][dNMeA][NMeL][dV][dNMeL][dA])): the Ki in series [1] turned out to be 270 nM; in series [2], 18 nM. Further, the IC50 on calcineurin was over 10000 nM.
Consider “[(2R)-2-[(5R,6R)-3,5-dimethyl-2-oxo-1,3-oxazinan-6-yl]-2-(methylamino)acetic acid]^1 cyclosporin A [Compound 21]”, for which the figures for the Ki in series [1] and in series [2] were 304 nM and 42 nM, respectively. The IC50 at calcineurin turned out to be 8160 nM.
Regarding `CC[C@H]1NC(=O)[C@@H]([C@@H]2OCN(C)C[C@H]2C)N(C)C(=O)[C@@H](C(C)C)N(C)C(=O)[C@@H](CC(C)C)N(C)C(=O)[C@@H](CC(C)C)N(C)C(=O)[C@H](C)NC(=O)[C@@H](C)NC(=O)[C@@H](CC(C)C)N(C)C(=O)[C@@H](C(C)C)NC(=O)[C@H](CC(C)C)N(C)C(=O)CN(C)C1=O` [Compound 23, [(2R)-2-[(5R,6R)-3,5-dimethyl-1,3-oxazinan-6-yl]-2-(methylamino)acetic acid]^1 cyclosporin A], the Ki in series [1] amounted to 754 nM; in series [2], 280 nM. In addition, the IC50 on calcineurin was over 10000 nM.
Consider `CC[C@H]1NC(=O)[C@@H]([C@@H]2OCCCC[C@H]2C)N(C)C(=O)[C@@H](C(C)C)N(C)C(=O)[C@@H](CC(C)C)N(C)C(=O)[C@@H](CC(C)C)N(C)C(=O)[C@H](C)NC(=O)[C@@H](C)NC(=O)[C@@H](CC(C)C)N(C)C(=O)[C@@H](C(C)C)NC(=O)[C@H](CC(C)C)N(C)C(=O)[C@@H](C)N(C)C1=O` [Compound 17, [(2S)-2-(methylamino)-2-[(2R,3R)-3-methyloxepan-2-yl]acetic acid]^1 [(R)-methyl-Sar]^3 cyclosporin A], for which the Ki in series [1] worked out at 105 nM; in series [2], 85 nM. At calcineurin, the IC50 was found to be 7740 nM.
In the case of `CC[C@H]1NC(=O)[C@@H]([C@@H]2OCCCC[C@H]2C)N(C)C(=O)[C@@H](C(C)C)N(C)C(=O)[C@@H](CC(C)C)N(C)C(=O)[C@@H](CC(C)C)N(C)C(=O)[C@H](C)NC(=O)[C@@H](C)NC(=O)[C@@H](CC(C)C)N(C)C(=O)[C@@H](C(C)C)NC(=O)[C@H](CC(C)C)N(C)C(=O)CN(C)C1=O` [Compound 16, [(2S)-2-(methylamino)-2-[(2R,3R)-3-methyloxepan-2-yl]acetic acid]^1 cyclosporin A], the figures for the Ki in series [1] and in series [2] were 386 nM and 560 nM, respectively. In addition, the IC50 on calcineurin is 6670 nM.
For `CC(C)C[C@@H]1C(=O)N(C)[C@H](CC(C)C)C(=O)N(C)[C@H](C(C)C)C(=O)N(C)[C@H]([C@@H]2OC(O)C[C@H]2C)C(=O)N[C@H](C(C)C)C(=O)N(C)CC(=O)N(C)[C@@H](CC(C)C)C(=O)N[C@H](C(C)C)C(=O)N(C)[C@H](CC(C)C)C(=O)N[C@H](C)C(=O)N[C@@H](C)C(=O)N1C` (stereo partly drawn) [Compound 13, [(2S)-2-[(2R,3R)-5-Hydroxy-3-methyl-tetrahydrofuran-2-yl]-2-(methylamino)acetic acid]^1 cyclosporin D], the results for the Ki in series [1] and in series [2] were 414 nM and 840 nM, respectively. Besides, the IC50 on calcineurin was over 10000 nM.

As usually defined, the Ki is the equilibrium dissociation constant of an inhibitor or competing ligand from its target. A word on the IC50: it is the midpoint of a concentration-inhibition curve. One may read the solubility as how much of the substance goes into solution per volume. A lower solubility goes with little dissolved substance.

Values taken from patent US9914755B2, “Cyclosporin derivatives wherein the MeBmt sidechain has been cyclized” (Allergan, Inc., priority 2015, dated 2018).
